Data set [1] can be described thus: Human hepatocyte stability. It is filed as in vitro ADME. The following applies: human hepatocytes 0.5×10^6 cells/mL, 120 minutes; for half-life at 1 μM: read-out: T1/2 (hepatic); for microsomal CLint at 1 μM: read-out: in vitro CLint (hepatic). How it is done: The tested compound was incubated in duplicate with incubation media (Williams' Medium E with 1× GlutaMAX) containing human hepatocytes (0.5×10^6 cells/mL). These incubations were carried out at a final test concentration of 1 μM over a total incubation period of 120 minutes. Samples were taken at 0, 15, 30, 60, 90 and 120 min and the reaction was terminated by addition of acetonitrile containing internal standard (100 nM alprazolam, 200 nM labetalol, 200 nM caffeine and 200 nM diclofenac). Verapamil was used as the positive control in this study. The samples were analyzed by UPLC-MS/MS to determine the concentration of the tested compound and the percentage remaining, intrinsic clearance (in vitro CLint) and half-life (t1/2) values were calculated.
(§1) Chromatographic analyses were performed on a Shimadzu UPLC apparatus (Kyoto, Japan) consisting of a gradient pump (model LC-30AD), an automatic injector (model HTC PAL System) and an on-line degasser (model DGU-20A5R). Detection was a triple quadrupole tandem mass spectrometer equipped with a turbo ion spray interface (API 4000/Triple Quad 4500/Triple Quad 5500/Triple Quad 6500). Data acquisition and integration were carried out with LC-MS software (Analyst 1.6) linked directly to the LC-MS/MS system. Chromatographic separations were achieved on a XSelect Hss T3 2.5μ (2.1×30 mm) Column. The mobile phase was 0.1% formic acid in water (A) and 0.1% formic acid in acetonitrile (B). The flow rate was 1.0 mL/min and column was maintained at 40° C.
(§2) Half-life (T1/2) data is measured in minutes, and in Table B2, in both microsomal and hepatic assays, the data is grouped into categories of: • A T1/2=1000+ • B T1/2=500 to 1000 • C T1/2=100 to 500 • D T1/2<100
(§3) In vitro clearance (CLint) data is measured in μL/min/mg prot, and in Table B2, in both microsomal and hepatic assays, the data is grouped into categories of: • A CLint<1 • B CLint=1 to 10 • C CLint=10 to 20 • D CLint=20+

Data set [2] in a line: Human liver microsome stability. Type of data set: in vitro ADME. The following applies: human liver microsomes 0.5 mg/mL, 37° C., 60 minutes; for half-life at 2 μM: read-out: T1/2 (microsomal); for microsomal CLint at 2 μM: read-out: in vitro CLint (microsomal). How it is done: The tested compound was incubated in duplicate with human liver microsomes (0.5 mg/mL) at 37° C. These incubations were carried out at a final test article concentration of 2 μM over a total incubation period of 60 minutes. Samples were taken at 0, 15, 30, 45 and 60 min and the reaction terminated by addition of 4 volumes of acetonitrile containing internal standard (100 nM alprazolam, 200 nM imipramine, 200 nM labetalol and 2 μM ketoprofen). Diclofenac was used as a positive control in this study. The samples were analyzed by UPLC-MS/MS to determine the concentration of the test compound and the percent remaining, intrinsic clearance (in vitro CLint) and half-life (t1/2) values were calculated.
as §1, §2, §3

For a further data set, the target named is T1, EP2 receptor (Homo sapiens, UniProt P43116).
T1 construct: expressed in transfected cells; host or cells: CHO-K1 cells (ATCC), transiently transfected with FuGENE 6
T1 sequence (P43116 whole entry): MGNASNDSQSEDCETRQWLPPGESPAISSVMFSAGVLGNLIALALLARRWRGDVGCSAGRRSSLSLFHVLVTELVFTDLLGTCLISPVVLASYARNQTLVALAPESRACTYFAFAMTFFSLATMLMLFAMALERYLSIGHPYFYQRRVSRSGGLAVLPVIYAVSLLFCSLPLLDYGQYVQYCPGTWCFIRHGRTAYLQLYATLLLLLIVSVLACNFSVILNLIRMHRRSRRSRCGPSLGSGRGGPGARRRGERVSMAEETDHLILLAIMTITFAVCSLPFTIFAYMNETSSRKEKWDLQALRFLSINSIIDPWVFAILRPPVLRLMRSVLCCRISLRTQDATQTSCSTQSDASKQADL
Nature of the data set: EP2 potency assay (cAMP TR-FRET, LANCE Ultra cAMP kit, antagonism of prostaglandin E2 at EC80). The following applies: CHO-K1 cells transfected with EP2 receptor. It is filed as cell-based. How it is done:
Compound potency was measured using a cAMP TR-FRET assay.
CHO-K1 cells (ATCC) were seeded at a density of 9.75×10^5 in 6 cm plates, and then on the following day cell media was changed to Opti-Mem I reduced serum media (Gibco), and transfected with a plasmid for expression of the EP2 receptor (the target receptor of interest), using the FuGENE 6 Transfection reagent (Promega). After 6 hours incubation, the cell media was replaced with F12 medium supplemented with 10% FBS and 100 U/ml Pen-Strep. 24 hours after transfection, cells were harvested and seeded at a density of 3000 cells/well in a 384 well plate to perform the cAMP assay, using the LANCE Ultra cAMP assay kit (PerkinElmer).
For each test compound of interest, 10 nl/well of serially diluted test compound was added to each well, resulting in a range of 10 serially diluted compound concentrations from 10000 nM to 0.038 nM, with duplicate wells for each concentration. Plates were then centrifuged at 1000 rpm for 1 min, agitated at 600 rpm at R.T. for 2 min, and incubated at 25° C. for 5 min. The reference agonist, prostaglandin E2 (MCE), was added to each well at the appropriate concentration to reach its EC80 value. Plates were then centrifuged at 1000 rpm for 1 min, agitated at 600 rpm at R.T. for 2 min, and incubated at 25° C. for 30 min.
To measure levels of cAMP, 5 μl/well of Eu-cAMP working solution and 5 μl/well of Ulight-anti-cAMP working solution were added to each well, and plate was centrifuged at 1000 rpm for 1 min, agitated at 600 rpm at R.T. for 2 min, and incubated at 25° C. for 15 min. Levels of TR-FRET fluorescence were measured in each well using an EnVision microplate reader (excitation wavelength=337 nm and emission wavelength=615 and 665 nm). A dose-response curve was prepared by plotting percent inhibition for each compound concentration, and then IC50 was calculated by fitting a curve to the plotted values and extrapolating the IC50 concentration.
Potency data is grouped into categories of AA (IC50<100 nM); A (IC50=100 to 500 nM); B (IC50=500 nM to 1 μM); C (IC50=1 μM to 5 μM); and D (IC50>5 μM).

As usually defined, the IC50 is the point on the concentration scale where inhibition reaches its midpoint.

Structures are written as SMILES.

As for `COc1ccc(C(=O)N2CCC(COc3ccc(-c4ccc(C#N)cc4)cc3)(C(=O)NS(C)(=O)=O)C2)cc1` (centres unmarked) [Compound 4-19, 3-(((4′-cyano-[1,1′-biphenyl]-4-yl)oxy)methyl)-1-(4-methoxybenzoyl)-N-(methylsulfonyl)pyrrolidine-3-carboxamide], in data set [1], the half-life at 1 μM was more than 16.7 h and the microsomal CLint at 1 μM is less than 1 µL/min/mg. In data set [2], the half-life at 2 μM was more than 16.7 h and the microsomal CLint at 2 μM was less than 1 µL/min/mg. In addition, the IC50 on EP2 receptor was less than 100 nM.

Regarding `COc1ccc(C(=O)N2CCC(COc3ccc(-c4ccc(C#N)cc4)cc3)(C(=O)NS(=O)(=O)C(F)(F)F)C2)cc1` (centres unmarked) [Compound 4-24, 3-[({4′-cyano-[1,1′-biphenyl]-4-yl}oxy)methyl]-1-(4-methoxybenzoyl)-N-trifluoromethanesulfonylpyrrolidine-3-carboxamide], in data set [1], the half-life at 1 μM lay in the range of 8.33 to 16.7 h and the microsomal CLint at 1 μM lay in the range of 1 to 10 µL/min/mg. Besides, in data set [2], the half-life at 2 μM is 1.67 to 8.33 h and the microsomal CLint at 2 μM fell in the range of 1 to 10 µL/min/mg. This compound also had an IC50 against EP2 receptor of 100 to 500 nM.

Consider `COc1ccc(C(=O)N2CCC(COc3ccc(-c4ccc(C#N)cc4)cc3)(C(=O)O)C2)cc1` (centres unmarked) [Ref, reference compound], for which, in data set [1], the half-life at 1 μM was in the range of 1.67 to 8.33 h and the microsomal CLint at 1 μM was in the range of 1 to 10 µL/min/mg. In data set [2], the half-life at 2 μM was in the range of 8.33 to 16.7 h and the microsomal CLint at 2 μM lay in the range of 1 to 10 µL/min/mg.

The record behind these values is US12297171B2, “EP2 antagonist compounds” (Reservoir Neuroscience, Inc., priority 2021, dated 2025).
